Results on 23 substances are retold here after patent publication US20260263593A1, “ALLERGY ANTIGEN AND EPITOPE THEREOF” (HOYU CO., LTD., priority 2018, published 2026).

In this assay the test system is IgE antibody present in the serum of a shrimp-allergic patient. Nature of the assay: Epitope mapping (1): array of overlapping 15-amino-acid peptides, chemiluminescence. The note with it: 15-amino-acid peptide array; serum of 37 patients; difference from N2nd value of 5 non-shrimp-allergic subjects at least 35,000. It counts as binding, human. The procedure:
Epitope mapping was carried out using a library of overlapping peptides (length: 15 amino acids) corresponding to the amino acid sequences identified as allergy components of shrimp and the amino acid sequence of arginine kinase. Specifically, the library of overlapping peptides was prepared on the basis of the amino acid sequences of SEQ ID NOs: 117, 141, 146, 2, 45, 87, 276, 161, 230, 179, 362, 381, 399, 421, 455, 481, 486, 520, 541, 300 and 306, and arginine kinase.
The peptides to be synthesized were shifted by 10 amino acids.
For preparation of peptide arrays, the Intavis CelluSpots™ technique was used. Specifically, the peptide arrays were prepared by the following procedure: (1) synthesizing peptides of interest on amino-modified cellulose disks using an automated chemical synthesis apparatus (Intavis MultiPep RS), (2) dissolving the amino-modified cellulose disks to obtain a cellulose-bound peptide solution, and (3) spotting the cellulose-bound peptides onto coated glass slides. The details of each procedure are as described below.
Peptide synthesis was carried out in incremental steps through 9-fluorenylmethoxycarbonyl (Fmoc) chemical reaction on amino-modified cellulose disks in 384-well synthesis plates. Specifically, amino acids in which a Fmoc group is bonded to an amino group were activated in a solution of N,N′-diisopropylcarbodiimide (DIC) and 1-hydroxybenzotriazole (HOBt) in dimethylformamide (DMF) and added dropwise to the cellulose disks so that the Fmoc group-bound amino acids were bound to the amino groups on the cellulose disks (coupling). Unreacted amino groups were capped with acetic anhydride and washed with DMF. Furthermore, the Fmoc groups were eliminated from the amino groups of the amino acids bound to the amino groups on the cellulose disks by treatment with piperidine and washing with DMF. The amino acids bound to the amino groups on the cellulose disks were repetitively subjected to the coupling, the capping, and the Fmoc group elimination described above to elongate the amino terminus for peptide synthesis.
The peptides-bound cellulose disks of interest obtained above in the subsection titled “(1) Synthesis of peptide” were transferred to 96-well plates and treated with a side chain deprotection mixed solution of trifluoroacetic acid (TFA), dichloromethane, triisopropylsilane (TIPS), and water for deprotection of amino acid side chains. Then, the deprotected cellulose-bound peptides were dissolved in a mixed solution of TFA, trifluoromethanesulfonic acid (TFMSA), TIPS, and water and precipitated in tetrabutyl methyl ether (TBME), and the precipitate was resuspended in dimethyl sulfoxide (DMSO) and mixed with a mixed solution of NaCl, sodium citrate, and water to obtain a peptide solution for slide spotting.
The peptide solution for slide spotting obtained above in the subsection titled “(2) Dissolution of amino-modified cellulose disk” was spotted onto Intavis CelluSpots™ slides using Intavis Slide Spotting Robot, and the slides were dried to prepare peptide arrays.
The presence or absence of binding, to each peptide fragment, of an IgE antibody present in the serum of a shrimp-allergic patient was measured through antigen-antibody reaction using the peptide arrays. […]

Turning to “E21: common 15-residue IgE-binding epitope sequence of polypeptide (E21), troponin I-derived (MADEEAKKKQEEIDR; VAR_SEQ 1..15 epitope) [Epitope E21]”, the “Peptide bound to an IgE antibody in serum in a patient-specific manner” value (from here on “Peptide bound to an IgE antibody”) is listed as “bound to an IgE antibody in serum in a patient-specific manner”.
Consider “E22: common 15-residue IgE-binding epitope sequence of polypeptide (E22), cyclophilin A-derived (VMELRADVVPKTAEN; VAR_SEQ 1..15 epitope) [Epitope E22]”, for which the “Peptide bound to an IgE antibody” value is reported as “bound to an IgE antibody in serum in a patient-specific manner”.
Take “E23: common 15-residue IgE-binding epitope sequence of polypeptide (E23), cyclophilin A-derived (SCFHRVIPNFMCQGG; VAR_SEQ 1..15 epitope) [Epitope E23]”: the “Peptide bound to an IgE antibody” value was “bound to an IgE antibody in serum in a patient-specific manner”.
To “E24: common 15-residue IgE-binding epitope sequence of polypeptide (E24), arginine kinase-derived (LFDPIIEDYHVGFKQ; VAR_SEQ 1..15 epitope) [Epitope E24]” belongs “bound to an IgE antibody in serum in a patient-specific manner”; to “E25: common 15-residue IgE-binding epitope sequence of polypeptide (E25), arginine kinase-derived (VNVDPEGKFVISTRV; VAR_SEQ 1..15 epitope) [Epitope E25]”, “bound to an IgE antibody in serum in a patient-specific manner”; to “E26: common 15-residue IgE-binding epitope sequence of polypeptide (E26), myosin heavy chain type 1-derived (PDPDPTEYLFISREQ; VAR_SEQ 1..15 epitope) [Epitope E26]”, “bound to an IgE antibody in serum in a patient-specific manner”.
As to “E27: common 15-residue IgE-binding epitope sequence of polypeptide (E27), myosin heavy chain type 1-derived (KLVTVKLPSGETKDF; VAR_SEQ 1..15 epitope) [Epitope E27]”, the “Peptide bound to an IgE antibody” value is given as “bound to an IgE antibody in serum in a patient-specific manner”.
Then “E28: common 15-residue IgE-binding epitope sequence of polypeptide (E28), myosin heavy chain type 1-derived (RGYHIFYQLMCDQID; VAR_SEQ 1..15 epitope) [Epitope E28]”, with “bound to an IgE antibody in serum in a patient-specific manner”; and “E29: common 15-residue IgE-binding epitope sequence of polypeptide (E29), myosin heavy chain type 1-derived (QRYNILAAKEMLEAK; VAR_SEQ 1..15 epitope) [Epitope E29]”, with “bound to an IgE antibody in serum in a patient-specific manner”; and “E30: common 15-residue IgE-binding epitope sequence of polypeptide (E30), myosin heavy chain type 1-derived (MLEAKDDKKAATACF; VAR_SEQ 1..15 epitope) [Epitope E30]”, with “bound to an IgE antibody in serum in a patient-specific manner”.
Then “E31: common 15-residue IgE-binding epitope sequence of polypeptide (E31), myosin heavy chain type 1-derived (ESRGRATLLGKFRNL; VAR_SEQ 1..15 epitope) [Epitope E31]”, with “bound to an IgE antibody in serum in a patient-specific manner”; and “E32: common 15-residue IgE-binding epitope sequence of polypeptide (E32), myosin heavy chain type 1-derived (INELEIALDHANKAN; VAR_SEQ 1..15 epitope) [Epitope E32]”, with “bound to an IgE antibody in serum in a patient-specific manner”.
In the case of “E33: common 15-residue IgE-binding epitope sequence of polypeptide (E33), myosin heavy chain type 1-derived (TKPYDPKKSCWVPDD; VAR_SEQ 1..15 epitope) [Epitope E33]”, the “Peptide bound to an IgE antibody” value is reported as “bound to an IgE antibody in serum in a patient-specific manner”.
As for “E34: common 15-residue IgE-binding epitope sequence of polypeptide (E34), myosin heavy chain type 1-derived (VQVNPPKYEKCEDVS; VAR_SEQ 1..15 epitope) [Epitope E34]”, the “Peptide bound to an IgE antibody” value was “bound to an IgE antibody in serum in a patient-specific manner”.
Then “E35: common 15-residue IgE-binding epitope sequence of polypeptide (E35), myosin heavy chain type 1-derived (ERGYHIFYQMMSDQV; VAR_SEQ 1..15 epitope) [Epitope E35]”, with “bound to an IgE antibody in serum in a patient-specific manner”.
For the substance “E36: common 15-residue IgE-binding epitope sequence of polypeptide (E36), myosin heavy chain type 1-derived (GNMKFKQRGREEQAE; VAR_SEQ 1..15 epitope) [Epitope E36]”, the “Peptide bound to an IgE antibody” value is “bound to an IgE antibody in serum in a patient-specific manner”.
Then “E37: common 15-residue IgE-binding epitope sequence of polypeptide (E37), myosin heavy chain type 1-derived (IMHQLTCNGVLEGIR; VAR_SEQ 1..15 epitope) [Epitope E37]”, with “bound to an IgE antibody in serum in a patient-specific manner”.
With “E38: common 15-residue IgE-binding epitope sequence of polypeptide (E38), myosin heavy chain type 1-derived (LDKELYRCGKTKVFF; VAR_SEQ 1..15 epitope) [Epitope E38]”, the “Peptide bound to an IgE antibody” value is reported as “bound to an IgE antibody in serum in a patient-specific manner”.
“E39: common 15-residue IgE-binding epitope sequence of polypeptide (E39), myosin heavy chain type 1-derived (VQKTNQDKATKDHQI; VAR_SEQ 1..15 epitope) [Epitope E39]”: the “Peptide bound to an IgE antibody” value was “bound to an IgE antibody in serum in a patient-specific manner”.
To “E40: common 15-residue IgE-binding epitope sequence of polypeptide (E40), myosin heavy chain type 1-derived (EISHQDEIINKVNKE; VAR_SEQ 1..15 epitope) [Epitope E40]” belongs “bound to an IgE antibody in serum in a patient-specific manner”; to “E41: common 15-residue IgE-binding epitope sequence of polypeptide (E41), myosin heavy chain type 1-derived (MTQETVADIERQHKD; VAR_SEQ 1..15 epitope) [Epitope E41]”, “bound to an IgE antibody in serum in a patient-specific manner”; to “E42: common 15-residue IgE-binding epitope sequence of polypeptide (E42), myosin heavy chain type 1-derived (QLEDTKKMVDDESRE; VAR_SEQ 1..15 epitope) [Epitope E42]”, “bound to an IgE antibody in serum in a patient-specific manner”.
Then “E43: common 15-residue IgE-binding epitope sequence of polypeptide (E43), myosin heavy chain type 1-derived (EIDKRIQEKEEEFDA; VAR_SEQ 1..15 epitope) [Epitope E43]”, with “bound to an IgE antibody in serum in a patient-specific manner”.
